From US20260053811A1, “METHODS OF TREATING HYPERTENSION IN OBESE SUBJECTS” (Mineralys Therapeutics, Inc., priority 2022, published 2026)
Read-outs that look alike come from different tables or passages of the source.

Experiment: Pharmacokinetics (plasma Cmax, AUC, Tmax, t1/2, trough concentrations)
Format: in vivo, human
Conditions: for Trough Plasma Concentration, Median / concentration at 7 day: Day 7; for concentration at 7 day / concentration at 28 day / concentration at 56 day / AUC(0-t) / Cmax: human, plasma, oral; for concentration at 56 day: Day 56
Text: Pharmacokinetic endpoints of this study are PK parameters, including, of area under the plasma concentration versus time curve (AUC), maximum plasma concentration (Cmax), time to maximum concentration (Tmax), and half-life (t1/2) will be summarized descriptively for Randomization (baseline) and Study Weeks 1, 4, and 8
PK/PD Analysis Set includes all subjects in the SAF who have sufficient data available for the analysis of pharmacokinetic and pharmacodynamic measurements. In the analyses based on PKPD, subjects will be analyzed according to the actual treatment received.

[1] = 12.5 mg, 12.5 mg BID, read-out: Trough Plasma Concentration, Mean (SD)
[2] = 12.5 mg, 12.5 mg QD, read-out: Trough Plasma Concentration, Mean (SD)
[3] = 25 mg, 25 mg BID, read-out: Trough Plasma Concentration, Mean (SD)
[4] = 50 mg, 50 mg QD, read-out: Trough Plasma Concentration, Mean (SD)
[5] = 100 mg, 100 mg QD Part 1, read-out: Trough Plasma Concentration, Mean (SD)
[6] = 100 mg, 100 mg QD Part 1, read-out: Trough Plasma Concentration, Median
[7] = 100 mg, 100 mg QD Part 2, read-out: Trough Plasma Concentration, Mean (SD)
[8] = 100 mg, 100 mg QD Part 2, read-out: Trough Plasma Concentration, Median

With `CC(=O)N[C@H]1CC[C@H](NC(=O)CN2CCN(c3nncc(-c4ccc(C)cc4)n3)CC2)CC1` [Compound A HBr] the “Trough Plasma Concentration, Median” value (12.5 mg BID) was 26.1 ng/mL, the “Trough Plasma Concentration, Median” value (12.5 mg QD) was 5.52 ng/mL and the “Trough Plasma Concentration, Median” value (25 mg BID) was 52 ng/mL. For the same molecule, the “Trough Plasma Concentration, Median” value (50 mg QD) was 12.1 ng/mL, the concentration at 7 day [1] was 0.0523 µg/mL and the concentration at 7 day [2] was 0.0116 µg/mL. The concentration at 28 day (12.5 mg, Day 28, 12.5 mg BID, read-out: Trough Plasma Concentration, Geo Mean) was 0.0107 µg/mL, the concentration at 28 day (12.5 mg, Day 28, 12.5 mg BID, read-out: Trough Plasma Concentration, Mean (SD)) was 0.0334 µg/mL and the concentration at 28 day (12.5 mg, Day 28, 12.5 mg BID, read-out: Trough Plasma Concentration, Median) was 0.0273 µg/mL. It also gave a concentration at 28 day (12.5 mg, Day 28, 12.5 mg QD, read-out: Trough Plasma Concentration, Geo Mean) of 0.00577 µg/mL, a concentration at 28 day (12.5 mg, Day 28, 12.5 mg QD, read-out: Trough Plasma Concentration, Mean (SD)) of 0.00791 µg/mL and a concentration at 28 day (12.5 mg, Day 28, 12.5 mg QD, read-out: Trough Plasma Concentration, Median) of 0.0041 µg/mL. It also gave a concentration at 56 day (12.5 mg, 12.5 mg BID, read-out: Trough Plasma Concentration, Geometric Mean) of 0.0185 µg/mL, a concentration at 56 day [1] of 0.0404 µg/mL and a concentration at 56 day (12.5 mg, 12.5 mg BID, read-out: Trough Plasma Concentration, Median) of 0.0216 µg/mL. The concentration at 56 day (12.5 mg, 12.5 mg QD, read-out: Trough Plasma Concentration, Geometric Mean) was 0.0221 µg/mL, the concentration at 56 day [2] was 0.0399 µg/mL and the concentration at 56 day (12.5 mg, 12.5 mg QD, read-out: Trough Plasma Concentration, Median) was 0.0076 µg/mL. The AUC(0-t) (12.5 mg, steady state Day 28, 12.5 mg BID, read-out: AUC0-24, Geo Mean) was 0.94 µg·h/mL, the AUC(0-t) (12.5 mg, steady state Day 28, 12.5 mg BID, read-out: AUC0-24, Mean (SD)) was 0.992 µg·h/mL and the AUC(0-t) (12.5 mg, steady state Day 28, 12.5 mg BID, read-out: AUC0-24, Median) was 0.922 µg·h/mL. It also gave a Cmax (12.5 mg, steady state Day 28, 12.5 mg BID, read-out: Cmax, Median) of 0.137 µg/mL, an AUC(0-t) (12.5 mg, steady state Day 28, 12.5 mg QD, read-out: AUC0-24, Geo Mean) of 0.726 µg·h/mL and an AUC(0-t) (12.5 mg, steady state Day 28, 12.5 mg QD, read-out: AUC0-24, Mean (SD)) of 1.02 µg·h/mL. It also gave an AUC(0-t) (12.5 mg, steady state Day 28, 12.5 mg QD, read-out: AUC0-24, Median) of 0.498 µg·h/mL, a Cmax (12.5 mg, steady state Day 28, 12.5 mg QD, read-out: Cmax, Geo Mean) of 0.12 µg/mL and a Cmax (12.5 mg, steady state Day 28, 12.5 mg QD, read-out: Cmax, Mean (SD)) of 0.153 µg/mL. The Cmax (12.5 mg, steady state Day 28, 12.5 mg QD, read-out: Cmax, Median) was 0.0949 µg/mL, the concentration at 7 day [3] was 0.0942 µg/mL and the concentration at 28 day (25 mg, Day 28, 25 mg BID, read-out: Trough Plasma Concentration, Geo Mean) was 0.0621 µg/mL. The concentration at 28 day (25 mg, Day 28, 25 mg BID, read-out: Trough Plasma Concentration, Mean (SD)) was 0.109 µg/mL, the concentration at 28 day (25 mg, Day 28, 25 mg BID, read-out: Trough Plasma Concentration, Median) was 0.0563 µg/mL and the concentration at 56 day (25 mg, 25 mg BID, read-out: Trough Plasma Concentration, Geometric Mean) was 0.046 µg/mL. The concentration at 56 day [3] was 0.104 µg/mL, the concentration at 56 day (25 mg, 25 mg BID, read-out: Trough Plasma Concentration, Median) was 0.0323 µg/mL and the AUC(0-t) (25 mg, steady state Day 28, 25 mg BID, read-out: AUC0-24, Geo Mean) was 1.64 µg·h/mL. The AUC(0-t) (25 mg, steady state Day 28, 25 mg BID, read-out: AUC0-24, Mean (SD)) was 1.76 µg·h/mL, the AUC(0-t) (25 mg, steady state Day 28, 25 mg BID, read-out: AUC0-24, Median) was 1.67 µg·h/mL and the Cmax (25 mg, steady state Day 28, 25 mg BID, read-out: Cmax, Geo Mean) was 0.325 µg/mL. The Cmax (25 mg, steady state Day 28, 25 mg BID, read-out: Cmax, Median) was 0.335 µg/mL, the concentration at 7 day [4] was 0.0931 µg/mL and the concentration at 28 day (50 mg, Day 28, 50 mg QD, read-out: Trough Plasma Concentration, Geo Mean) was 0.0468 µg/mL. For the same molecule, the concentration at 28 day (50 mg, Day 28, 50 mg QD, read-out: Trough Plasma Concentration, Mean (SD)) was 0.0874 µg/mL, the concentration at 28 day (50 mg, Day 28, 50 mg QD, read-out: Trough Plasma Concentration, Median) was 0.0209 µg/mL and the concentration at 56 day (50 mg, 50 mg QD, read-out: Trough Plasma Concentration, Geometric Mean) was 0.0381 µg/mL. The concentration at 56 day [4] was 0.155 µg/mL, the concentration at 56 day (50 mg, 50 mg QD, read-out: Trough Plasma Concentration, Median) was 0.018 µg/mL and the AUC(0-t) (50 mg, steady state Day 28, 50 mg QD, read-out: AUC0-24, Geo Mean) was 3.23 µg·h/mL. For the same molecule, the AUC(0-t) (50 mg, steady state Day 28, 50 mg QD, read-out: AUC0-24, Mean (SD)) was 3.39 µg·h/mL, the AUC(0-t) (50 mg, steady state Day 28, 50 mg QD, read-out: AUC0-24, Median) was 3.32 µg·h/mL and the Cmax (50 mg, steady state Day 28, 50 mg QD, read-out: Cmax, Geo Mean) was 0.477 µg/mL. It also gave a Cmax (50 mg, steady state Day 28, 50 mg QD, read-out: Cmax, Mean (SD)) of 0.518 µg/mL, a Cmax (50 mg, steady state Day 28, 50 mg QD, read-out: Cmax, Median) of 0.488 µg/mL and an AUC(0-t) (100 mg, 100 mg QD, Cohort 1, Day 28, read-out: Steady-state AUC0-24) of 14.9 µg·h/mL. It also gave a Cmax (100 mg, 100 mg QD, Cohort 1, Day 28, read-out: Steady-state Cmax) of 1.62 µg/mL, an AUC(0-t) (100 mg, 100 mg QD, Cohort 2, Day 28, read-out: Steady-state AUC0-24) of 7.48 µg·h/mL and a Cmax (100 mg, 100 mg QD, Cohort 2, Day 28, read-out: Steady-state Cmax) of 1.36 µg/mL. The AUC(0-t) (100 mg, 100 mg QD, Day 28, read-out: Steady-state AUC0-24, mean of Cohort 1 and Cohort 2) was about 11.2 µg·h/mL, the Cmax (100 mg, 100 mg QD, Day 28, read-out: Steady-state Cmax, mean of Cohort 1 and Cohort 2) was about 1.49 µg/mL and the concentration at 7 day [5] was 0.299 µg/mL. For the same molecule, the concentration at 7 day [6] was 0.0282 µg/mL, the concentration at 7 day [7] was 0.151 µg/mL and the concentration at 7 day [8] was 0.0298 µg/mL. For the same molecule, the concentration at 28 day (100 mg, Day 28, 100 mg QD Part 1, read-out: Trough Plasma Concentration, Geo Mean) was 0.0507 µg/mL, the concentration at 28 day (100 mg, Day 28, 100 mg QD Part 1, read-out: Trough Plasma Concentration, Mean (SD)) was 0.303 µg/mL and the concentration at 28 day (100 mg, Day 28, 100 mg QD Part 1, read-out: Trough Plasma Concentration, Median) was 0.0386 µg/mL. It also gave a concentration at 28 day (100 mg, Day 28, 100 mg QD Part 2, read-out: Trough Plasma Concentration, Geo Mean) of 0.0129 µg/mL, a concentration at 28 day (100 mg, Day 28, 100 mg QD Part 2, read-out: Trough Plasma Concentration, Mean (SD)) of 0.0264 µg/mL and a concentration at 28 day (100 mg, Day 28, 100 mg QD Part 2, read-out: Trough Plasma Concentration, Median) of 0.0199 µg/mL. For the same molecule, the concentration at 56 day (100 mg, 100 mg QD Part 1, read-out: Trough Plasma Concentration, Geometric Mean) was 0.0721 µg/mL, the concentration at 56 day [5] was 0.258 µg/mL and the concentration at 56 day [6] was 0.0304 µg/mL. For the same molecule, the concentration at 56 day (100 mg, 100 mg QD Part 2, read-out: Trough Plasma Concentration, Geometric Mean) was 0.0203 µg/mL, the concentration at 56 day [7] was 0.0232 µg/mL and the concentration at 56 day [8] was 0.02 µg/mL. It also gave an AUC(0-t) (100 mg, steady state Day 28, 100 mg QD Part 1, read-out: AUC0-24, Geo Mean) of 10.4 µg·h/mL, an AUC(0-t) (100 mg, steady state Day 28, 100 mg QD Part 1, read-out: AUC0-24, Mean (SD)) of 14.9 µg·h/mL and an AUC(0-t) (100 mg, steady state Day 28, 100 mg QD Part 1, read-out: AUC0-24, Median) of 15 µg·h/mL. The Cmax (100 mg, steady state Day 28, 100 mg QD Part 1, read-out: Cmax, Geo Mean) was 1.37 µg/mL and the Cmax (100 mg, steady state Day 28, 100 mg QD Part 1, read-out: Cmax, Mean (SD)) was 1.62 µg/mL.
